Results published in ChEMBL document CHEMBL6178006, “Novel Spirocyclic WRN Helicase Inhibitors for Treating Cancer” (ACS Med Chem Lett, 2025).

Target: Bifunctional 3'-5' exonuclease/ATP-dependent helicase WRN (Homo sapiens, UniProt Q14191)
Experiment: Inhibition of WRN helicase (500 to 942 residues)(unknown origin) using fluor/quencher-labeled forked double-stranded DNA substrate assessed as decrease in helicase unwinding activity preincubated for 1 hr followed by substrate addition measured after 1 hr in presence of ATP by fluorescence based assay

Chain of Bifunctional 3'-5' exonuclease/ATP-dependent helicase WRN (Q14191 whole entry, the tested form may be a part): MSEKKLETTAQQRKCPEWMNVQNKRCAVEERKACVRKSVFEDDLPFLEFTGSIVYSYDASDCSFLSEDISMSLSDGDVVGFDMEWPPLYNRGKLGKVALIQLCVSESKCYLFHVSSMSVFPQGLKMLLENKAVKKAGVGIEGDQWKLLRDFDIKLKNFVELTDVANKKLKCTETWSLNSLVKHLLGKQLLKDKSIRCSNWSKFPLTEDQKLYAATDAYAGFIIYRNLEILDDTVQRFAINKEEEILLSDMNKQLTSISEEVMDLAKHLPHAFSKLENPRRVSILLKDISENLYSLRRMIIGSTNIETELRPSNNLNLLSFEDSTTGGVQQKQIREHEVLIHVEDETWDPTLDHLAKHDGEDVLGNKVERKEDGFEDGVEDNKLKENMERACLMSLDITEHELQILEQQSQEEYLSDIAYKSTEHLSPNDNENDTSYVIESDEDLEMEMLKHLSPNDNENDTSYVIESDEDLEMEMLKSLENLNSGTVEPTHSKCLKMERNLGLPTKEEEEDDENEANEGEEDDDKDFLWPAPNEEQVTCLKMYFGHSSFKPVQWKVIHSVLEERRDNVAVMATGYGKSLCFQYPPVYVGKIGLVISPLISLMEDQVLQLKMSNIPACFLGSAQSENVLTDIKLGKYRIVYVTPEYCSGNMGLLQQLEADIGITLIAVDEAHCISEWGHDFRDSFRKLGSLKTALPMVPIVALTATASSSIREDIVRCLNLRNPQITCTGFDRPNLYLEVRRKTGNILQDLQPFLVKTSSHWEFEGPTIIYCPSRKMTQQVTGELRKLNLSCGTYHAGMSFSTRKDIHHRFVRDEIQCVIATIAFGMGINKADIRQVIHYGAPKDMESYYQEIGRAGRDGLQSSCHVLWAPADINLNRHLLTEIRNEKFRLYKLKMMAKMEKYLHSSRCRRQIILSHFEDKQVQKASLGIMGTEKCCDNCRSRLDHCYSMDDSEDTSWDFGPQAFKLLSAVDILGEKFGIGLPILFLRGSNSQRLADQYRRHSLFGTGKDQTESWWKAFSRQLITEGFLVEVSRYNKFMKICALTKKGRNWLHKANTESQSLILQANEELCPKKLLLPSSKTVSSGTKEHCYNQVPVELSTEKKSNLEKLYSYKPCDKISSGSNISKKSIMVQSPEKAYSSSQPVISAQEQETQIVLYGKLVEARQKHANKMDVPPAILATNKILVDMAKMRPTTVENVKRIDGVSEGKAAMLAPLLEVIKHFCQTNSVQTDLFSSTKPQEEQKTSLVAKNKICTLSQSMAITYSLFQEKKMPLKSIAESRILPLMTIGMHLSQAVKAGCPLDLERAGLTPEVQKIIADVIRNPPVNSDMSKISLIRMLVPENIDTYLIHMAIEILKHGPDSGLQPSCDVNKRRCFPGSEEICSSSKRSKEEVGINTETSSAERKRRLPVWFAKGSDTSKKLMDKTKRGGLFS

| IC50 | Compound |
| --- | --- |
| 1.9 nM | CC1CC2(CCN(C(=O)c3ncccc3O)CC2)c2c1n(CC(=O)Nc1ccc(C(F)(F)F)cc1)c1nc(C3=CCOCC3)nn1c2=O (configuration not stated) |
| 2 nM | CC(=O)N1CC=C(c2nc3n(CC(=O)Nc4ccc(C(F)(F)F)cc4Cl)c4c(c(=O)n3n2)C2(CCN(C(=O)c3ncccc3O)CC2)CC4C)CC1 (configuration not stated) |
